Experiments:
CYP2C8 = biological target: T1, CYP2C8 (Homo sapiens, UniProt P10632); assay: In vitro metabolism by CYP enzymes; format: in vitro ADME
T1 sequence (P10632 1-490): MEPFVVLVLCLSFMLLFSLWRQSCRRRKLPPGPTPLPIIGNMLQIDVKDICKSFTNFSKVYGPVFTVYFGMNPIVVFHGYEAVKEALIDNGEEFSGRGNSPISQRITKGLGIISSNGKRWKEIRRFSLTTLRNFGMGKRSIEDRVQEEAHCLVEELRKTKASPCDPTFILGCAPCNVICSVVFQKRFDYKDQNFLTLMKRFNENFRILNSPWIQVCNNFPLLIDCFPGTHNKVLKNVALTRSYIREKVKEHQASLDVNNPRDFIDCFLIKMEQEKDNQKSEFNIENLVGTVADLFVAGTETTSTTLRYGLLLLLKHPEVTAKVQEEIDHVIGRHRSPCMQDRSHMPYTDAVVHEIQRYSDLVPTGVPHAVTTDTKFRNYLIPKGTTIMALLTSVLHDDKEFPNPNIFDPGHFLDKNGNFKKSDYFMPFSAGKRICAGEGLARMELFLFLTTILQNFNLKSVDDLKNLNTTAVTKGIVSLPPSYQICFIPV

[1] = tested on: adults with biopsy-confirmed NASH; assay: MAESTRO-NASH: non-invasive predictive markers of biopsy response; format: in vivo, human; details: 100 mg
Protocol: Histologic endpoints were assessed after 52 weeks. […] The non-invasive correlates of response in the MAESTRO-NASH trial are summarized below.
Adults with ≥3 metabolic risk factors, liver stiffness ≥8.5 kPa, hepatic fat ≥8%, biopsy-confirmed NASH with F1B-F3 fibrosis, and NAS≥4 were eligible to participate in MAESTRO-NASH.
Random Forest model was utilized to determine the biomarkers and imaging tests both at baseline and change from baseline that had the most important association with response on biopsy for NASH resolution and/or fibrosis improvement. The data was based on baseline characteristics and change from baseline of more than 40 variables: biomarkers, clinical features, and imaging. This analysis confirmed the importance of MRI-PDFF (FIGS. 42-43).

## CC(C)c1cc(Oc2c(Cl)cc(-n3nc(C#N)c(=O)[nH]c3=O)cc2Cl)n[nH]c1=O [Resmetirom, 2-(3,5-dichloro-4-((5-isopropyl-6-oxo-1,6-dihydropyridazin-3-yl)oxy)phenyl)-3,5-dioxo-2,3,4,5-tetrahydro-1,2,4-triazine-6-carbonitrile]
CYP2C8
  metabolizing CYP enzymes: metabolized by CYP2C8 and is not metabolized by other cytrochrome P450 (CYP) enzymes
[1]
  NASH resolution responders with at least a 30% PDFF response: 96%
  fibrosis improvement responders with at least a 30% PDFF response: 88%
